In brackets after ≈: the same amount, converted by molar mass.
Legend:
Solubility of Compound I = format: physicochemical
Method: (§1) The melting range of Compound I is from 120.5-151° C. In both Samples 4A and 4B, the drug loading is 4% or 20 mg/capsule.

Log P in octanol = format: physicochemical
Method: as §1

COC(=O)N[C@]1(C)Cc2ccc(NC(=O)c3cccc(C)c3-c3ccc(C(F)(F)F)cc3)cc2C1 [Compound I]
solubility (Solubility of Compound I): 0.17 µg/mL (≈ 0.352 µM)
Log P in octanol (Log P in octanol): 4.66

— patent US20080064760A1, “Spontaneously Dispersible Pharmaceutical Composition” (priority 2004, published 2008)
